# From ChEMBL document CHEMBL3430912, “GSK Tres Cantos Anti-Kinetoplastid Screening (TCAKS) Data”
# Key:
# Trypanosoma cruzi [1] = test: (§1) GSK_TCAKS: pIC50 Trypanosoma cruzi Imaging: Infected Cells. […] Cells were then washed once with PBS before infection. T. cruzi trypomastigotes, collected at days 5 to 8 after infection from LLC-MK2 parasite infected cultures, were allowed to swim out for 4h at 37C from a centrifuged pellet (2,500 rpm/10 min/room temperature). Trypomastigotes were then collected and counted in a CASY Cell Counter. Trypomastigotes, in supplemented DMEM, were added to H9c2 cultures in a multiplicity of infection of 1 and incubated for 18 h. Cells were washed once with PBS before incubation of the infected H9c2 monolayer with trypsin (Life-Technologies) to detach cells from the flask. Cells were counted in a CASY Cell Counter using a 150 um capillary and their density set at 5 * 10^4 cells per mL in supplemented assay DMEM. Infected H9c2 were dispensed into 384-well poly-lysine coated assay plates at 50uL per well using a Multidrop Combi dispenser. After seeding them, the plates were incubated at 37C, 5% CO2 for 72h. Cultures were then fixed and stained by addition of 50 uL of a solution containing 8% formaldehyde and 4 uM DRAQ5 DNA dye (BioStatus, UK) per well. […] Five images were collected per well for reliable statistical analysis. Automated image analysis was performed with a script developed on Acapella High Content Imaging and Analysis Software (PerkinElmer). Output: percentage of infected cells per well as a second infection marker.; format: functional, organism-based, Rattus norvegicus; settings: H9c2, 4 h
# Trypanosoma cruzi [2] = test: as §1, with “H2C9” for “Trypanosoma cruzi”, “H9c2 Host Cardiomyocytes.” for “Infected Cells.”, “Number” for “percentage”, “H9c2 Host Cardiomyocytes nuclei to determine drug-related cytotoxicity.” for “infected cells per well as a second infection marker.”; format: functional, organism-based, Rattus norvegicus; settings: H9c2, 4 h
# [3] = tested on: Trypanosoma brucei brucei; test: GSK_TCAKS: pIC50 Trypanosoma brucei viability assay using fluorescence intensity. Assay plates (1536-well) were prepared by dispensing 25nL of compound solution per well using an Echo acoustic dispenser (Labcyte).; format: functional, organism-based; settings: Lister 427, 2 h
# Trypanosoma cruzi [4] = test: GSK_TCAKS: pIC50 Trypanosoma cruzi viability assay using beta-GAL activity. This assay was run at single shot at 5uM compound concentration per well. The biological reagents consisted of NIH-3T3 host cells and trypomastigotes parasitic cells; both cell types were set to a 3.3 * 10^5 cells/mL dilution in assay DMEM by means of a CASY cell counter device using a 60um capillary. 6 uL of the mixture were dispensed per well (about 1 * 10^3 host-cells and 1 * 10^3 parasites) with a Multidrop Combi dispenser. […] In all wells, the percentage of DMSO never exceeded 0.5%. Plates incubated for four days at 37C, 5% CO2. The substrate used for the assay fluorescence intensity (FLINT) readout was resorufin-beta-D-galactopiranoside (Sigma-Aldrich) at 5uM per well. It was diluted in PBS supplemented with the soft detergent Igepal (Fluka).; format: functional, organism-based, Mus musculus; settings: Tulahuen, NIH3T3
# Trypanosoma cruzi [5] = test: GSK_TCAKS: pIC50 Trypanosoma cruzi Imaging: Amastigotes/Cell. […] Cells were then washed once with PBS before infection. T. cruzi trypomastigotes, collected at days 5 to 8 after infection from LLC-MK2 parasite infected cultures, were allowed to swim out for 4h at 37C from a centrifuged pellet (2,500 rpm/10 min/room temperature). Trypomastigotes were then collected and counted in a CASY Cell Counter. Trypomastigotes, in supplemented DMEM, were added to H9c2 cultures in a multiplicity of infection of 1 and incubated for 18 h. Cells were washed once with PBS before incubation of the infected H9c2 monolayer with trypsin (Life-Technologies) to detach cells from the flask. Cells were counted in a CASY Cell Counter using a 150 um capillary and their density set at 5 * 10^4 cells per mL in supplemented assay DMEM. Infected H9c2 were dispensed into 384-well poly-lysine coated assay plates at 50uL per well using a Multidrop Combi dispenser. After seeding them, the plates were incubated at 37C, 5% CO2 for 72h. Cultures were then fixed and stained by addition of 50 uL of a solution containing 8% formaldehyde and 4 uM DRAQ5 DNA dye (BioStatus, UK) per well. […] Five images were collected per well for reliable statistical analysis. Automated image analysis was performed with a script developed on Acapella High Content Imaging and Analysis Software (PerkinElmer). Output: number of amastigotes per cell as infection level measurement.; format: functional, organism-based, Rattus norvegicus; settings: H9c2, 4 h
# Leishmania donovani [6] = test: (§2) GSK_TCAKS: pIC50 Leishmania donovani Imaging: Infected Macrophages. Assay plates (384-well) were prepared by adding 250nL of compound to each well. For single shot assay, the final compound concentration was 5 uM. […] Automated image analysis was performed with a script developed on Acapella High Content Imaging and Analysis Software (PerkinElmer). Output: Percent of infected macrophage cells were reported for each well.; format: functional, organism-based, Homo sapiens; settings: THP-1
# [7] = biological target: Sterol 14-alpha demethylase (Trypanosoma cruzi (strain CL Brener), UniProt Q7Z1V1); test: GSK_TCAKS: pIC50 CYP51 from Trypanosoma cruzi.; format: functional
# Leishmania donovani [8] = test: as §2, with “Amastigotes/Macrophages.” for “Infected Macrophages.”, “Average number” for “Percent”, “amastigotes per” for “infected”, “cell” for “cells”; format: functional, organism-based, Homo sapiens; settings: THP-1
# [9] = tested on: Trypanosoma brucei brucei; test: GSK_TCAKS: pIC50 Trypanosoma brucei viability assay using luminiscence. Assay plates (1536-well) were prepared. T. brucei cultures were harvested and counted in a CASY cell counter. A parasite suspension was prepared at a final concentration of 5 * 10^4 cells/mL in complete HMI9 medium and 6uL was dispensed to all wells containing compounds using a Multidrop Combi dispenser. 6uL of HMI9 media with 0.4% DMSO were dispensed to control columns. Plates were incubated for 24 h at 37C, 5% CO2 then tempered for 10 min at room temperature. ATP content was quantified by adding 4 uL of CellTiter-Glo Reagent (Promega) according to the manufacturer's instructions. Luminescence was measured using a ViewLux.; format: functional, organism-based; settings: Lister 427, CASY
# Leishmania donovani [10] = test: as §2, with “THP-1 Host” for “Infected”, “THP-1 cell count” for “Percent of infected macrophage cells”; format: functional, organism-based, Homo sapiens
# Leishmania donovani [11] = test: GSK_TCAKS: pIC50 Leishmania donovani viability assay using fluorescence intensity. Assay plates (1536-well) were prepared by adding 30nL per well of compound. For single shot assay, the final compound concentration was 5uM. […] Briefly, eGFP LdBOB axenic amastigotes were harvested, fixed and counted in a CASY cell counter (Roche-Applied Science). A final concentration of 1.5 * 10^5 cells per well were prepared in amastigote media containing 500 U/mL penicillin/streptomycin (Invitrogen) and 6uL was dispensed to each experimental well using a Multidrop Combi dispenser (Thermo Scientific). 6uL of assay media was dispensed to control columns used as reference for 100% compound response. Following incubation for 72 h at 37C, 5% CO2, 2 uL of resazurin was added to each well at a final concentration of 0.5 mM in phosphate buffered saline (PBS) with IGEPAL (Sigma-Aldrich), 0.05% (v/v).; format: functional, organism-based
# [12] = GSK_TCAKS: pIC50 HepG2 human cell line viability assay using luminiscence. […] Seeding density was checked to ensure that new mono-layers were not more than 50% confluent at the time of harvesting. Cell suspension was added to 500 mL of the same medium at a final density of 1.2 * 10^5 cells/mL. This cell suspension was dispensed (25 uL, 3000 cells per well) into 384-well clear-bottom plates using a Multidrop Combi dispenser. Prior to addition of the cell suspension, the screening compounds (250 nL) were pre-dispensed into the plates with an Echo liquid handler. Plates were incubated for 48 h at 37C, 5% CO2. After incubation, plates equilibrated at room temperature for 30 min before proceeding to develop the luminescent signal. The signal developer, CellTiter-Glo Reagent, was allowed to equilibrate at room temperature for 30 min and added to the plates (25uL per well) using a Multidrop Combi dispenser. Plates were left for 10 min at room temperature for stabilization and then read using a ViewLux.; format: toxicity, cell-based
# Sequence of Sterol 14-alpha demethylase (Q7Z1V1 whole entry): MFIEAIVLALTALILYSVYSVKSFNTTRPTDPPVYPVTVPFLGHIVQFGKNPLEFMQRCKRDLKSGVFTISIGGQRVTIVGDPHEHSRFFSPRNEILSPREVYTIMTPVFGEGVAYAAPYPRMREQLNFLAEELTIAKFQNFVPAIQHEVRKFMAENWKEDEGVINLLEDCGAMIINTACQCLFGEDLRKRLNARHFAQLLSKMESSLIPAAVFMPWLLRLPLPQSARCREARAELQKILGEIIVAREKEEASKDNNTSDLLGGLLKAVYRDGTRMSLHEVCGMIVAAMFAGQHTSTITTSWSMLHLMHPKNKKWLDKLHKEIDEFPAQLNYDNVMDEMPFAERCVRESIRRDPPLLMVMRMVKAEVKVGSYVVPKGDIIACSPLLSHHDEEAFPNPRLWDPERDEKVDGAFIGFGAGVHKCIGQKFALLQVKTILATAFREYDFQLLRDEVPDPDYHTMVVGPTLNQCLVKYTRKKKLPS
Structure (SMILES),IC50 (Trypanosoma cruzi [1]) [nM],IC50 (Trypanosoma cruzi [2]) [nM],IC50 [3] [nM],IC50 (Trypanosoma cruzi [4]) [nM],IC50 (Trypanosoma cruzi [5]) [nM],IC50 (Leishmania donovani [6]) [nM],IC50 [7] [nM],IC50 (Leishmania donovani [8]) [nM],IC50 [9] [nM],IC50 (Leishmania donovani [10]) [nM],IC50 (Leishmania donovani [11]) [nM],IC50 at 48 h [12] [nM]
O=C(CCCNC(=O)c1ccc(Cl)cc1)Nc1nc(-c2ccccn2)cs1,25100,25100,7940,6310,10000,5010,3160,3160,12600,> 50100,> 50100,> 100000
O=C(Nc1nc2cc(Cl)ccc2o1)c1cccc(Cl)c1,794,2510,794,794,631,> 50100,> 100000,> 50100,794,6310,398,> 100000
CC(C)(C)c1cc(NC2CC2)nc(-c2ccccn2)n1,1580,316,7940,1260,1260,2510,> 100000,1580,2510,25100,1580,> 100000
CC(=O)Nc1ccc(Nc2nccc(-c3cnn4ncccc34)n2)cc1C(F)(F)F,501,63.1,31.6,50.1,200,25.1,31600,15.8,50.1,10,200,> 100000
CC(C)(C)CC(=O)NCCc1csc(-c2ccc(F)cc2)n1,1000,> 50100,631,1260,794,31600,20000,15800,501,15800,> 50100,> 100000
CCc1cccc(-n2nc(OCC(=O)NC3CCCC3)c3cccnc32)c1,> 50100,> 50100,> 39800,> 50100,> 50100,1000,> 100000,1260,> 39800,> 50100,2510,> 100000
COc1cccc(S(=O)(=O)Nc2ccc3c(c2)CC(N2CCC(NC(=O)C4CC4)CC2)C3)c1 (stereo not drawn),> 50100,> 50100,1000,39800,31600,> 50100,63100,25100,794,> 50100,> 50100,> 100000
c1ccc(-c2nc(NCc3ccco3)c3ccccc3n2)nc1,3160,2000,> 39800,6310,3980,2510,> 100000,2510,6310,31600,3160,> 100000
COc1ccccc1CNc1cc(C2CC2)nc(-c2nccn2C)n1,794,631,2510,891,1000,501,20000,398,2000,15800,1000,20000
